Values after ≈ are worked out from the molar mass of the structure shown.
Assays:
Experiment in all cases: In vitro antibacterial evaluation: minimum inhibitory concentration (MIC), broth dilution method
Type in all cases: cell-based
[1] = system: Escherichia coli
Procedure: (§1) The minimum inhibitory concentration (MIC), the lowest concentration of the antibiotic which inhibits growth of the test organism, is determined by the broth dilution method using Muller-Hinton II […] (Baltimore Biological Laboratories) following the recommendations of the National Committee for Clinical Laboratory Standards [Methods for dilution antimicrobial susceptibility tests for bacteria that grow aerobically, approved standard M7-A2, National Committee for Clinical Laboratory Standards, Villanova, Pa].
(§2) An inoculum level of 5×10^5 CFU/mL, and a range of antibiotic concentrations (64-0.06 μg/mL) is used. […] The test organisms include a spectrum of Gram-positive bacteria comprised of Staphylococcus sp., Streptococcus sp. and Enterococcus sp. These organisms include recent clinical isolates that are resistant to methicillin, penicillin and/or vancomycin.

[2] = system: Enterococcus sp.
Procedure: as §1, §2

[3] = system: Staphylococcus sp.; conditions: broth dilution, 18 hours at 35° C.
Procedure: as §1, §2

[4] = system: Streptococcus sp.
Procedure: as §1, §2

MIC Escherichia coli (ATCC 25922) ([1]; strain ATCC 25922): 64 µg/mL (≈ 41.9 µM)
MIC Escherichia coli (GC 4559) ([1]; strain GC 4559): 32 µg/mL (≈ 21 µM)
MIC Escherichia coli (GC 4560) ([1]; strain GC 4560): 2 µg/mL (≈ 1.31 µM)
MIC Enterococcus faecalis (GC 2242) ([2]; Enterococcus faecalis (GC 2242), broth dilution, 18 hours at 35° C.): 4 µg/mL (≈ 2.62 µM)
MIC Enterococcus faecalis (GC 2691) ([2]; Enterococcus faecalis (GC 2691), broth dilution, 18 hours at 35° C.): 4 µg/mL (≈ 2.62 µM)
MIC Enterococcus faecalis (GC 3059) ([2]; Enterococcus faecalis (GC 3059), broth dilution, 18 hours at 35° C.): 4 µg/mL (≈ 2.62 µM)
MIC Enterococcus faecalis (ATCC 29212) ([2]; strain ATCC 29212): 4 µg/mL (≈ 2.62 µM)
MIC Enterococcus faecalis (GC 2242) ([2]; strain GC 2242): 4 µg/mL (≈ 2.62 µM)
MIC Enterococcus faecium (GC 2243) ([2]; strain GC 2243): 2 µg/mL (≈ 1.31 µM)
MIC Enterococcus faecalis (GC 2691) ([2]; strain GC 2691): 4 µg/mL (≈ 2.62 µM)
MIC Enterococcus faecalis (GC 3059) ([2]; strain GC 3059): 4 µg/mL (≈ 2.62 µM)
MIC Enterococcus faecalis (GC 4552) ([2]; strain GC 4552): 4 µg/mL (≈ 2.62 µM)
MIC Enterococcus faecalis (GC 4553) ([2]; strain GC 4553): 2 µg/mL (≈ 1.31 µM)
MIC Enterococcus faecalis (GC 4554) ([2]; strain GC 4554): 4 µg/mL (≈ 2.62 µM)
MIC Enterococcus faecium (GC 4556) ([2]; strain GC 4556): 4 µg/mL (≈ 2.62 µM)
MIC Enterococcus faecium (GC 4557) ([2]; strain GC 4557): 1 µg/mL (≈ 0.655 µM)
MIC Enterococcus avium (GC 4558) ([2]; strain GC 4558): 2 µg/mL (≈ 1.31 µM)
MIC Enterococcus faecalis (GC 6189) ([2]; strain GC 6189): 4 µg/mL (≈ 2.62 µM)
MIC Staphylococcus aureus (ATCC 29213) [3]: 2 µg/mL (≈ 1.31 µM)
MIC Staphylococcus aureus (GC 1131) [3]: 4 µg/mL (≈ 2.62 µM)
MIC Staphylococcus aureus (GC 3051) [3]: 4 µg/mL (≈ 2.62 µM)
MIC Staphylococcus aureus (GC 3053) [3]: 4 µg/mL (≈ 2.62 µM)
MIC Staphylococcus aureus (GC 4541) [3]: 2 µg/mL (≈ 1.31 µM)
MIC Staphylococcus aureus (GC 4542) [3]: 4 µg/mL (≈ 2.62 µM)
MIC Staphylococcus aureus (GC 4544) [3]: 4 µg/mL (≈ 2.62 µM)
MIC Staphylococcus aureus (GC 4545) [3]: 2 µg/mL (≈ 1.31 µM)
MIC Staphylococcus aureus-SMITH (GC 4543) ([3]; strain SMITH GC 4543): 2 µg/mL (≈ 1.31 µM)
MIC Streptococcus agalactiae (GC 4564) ([4]; Streptococcus agalactiae (GC 4564), broth dilution, 18 hours at 35° C.): 0.25 µg/mL (≈ 0.164 µM)
MIC Streptococcus pneumoniae (ATCC 6301) ([4]; Streptococcus pneumoniae (ATCC 6301), broth dilution, 18 hours at 35° C.): 0.5 µg/mL (≈ 0.328 µM)
MIC Streptococcus pneumoniae (GC 1894) ([4]; Streptococcus pneumoniae (GC 1894), broth dilution, 18 hours at 35° C.): <0.12 µg/mL
MIC Streptococcus pneumoniae (GC 4565) ([4]; Streptococcus pneumoniae (GC 4565), broth dilution, 18 hours at 35° C.): 0.25 µg/mL (≈ 0.164 µM)
MIC Streptococcus pyogenes (GC 4563) ([4]; Streptococcus pyogenes (GC 4563), broth dilution, 18 hours at 35° C.): 0.25 µg/mL (≈ 0.164 µM)
MIC Streptococcus pneumoniae (ATCC 6301) ([4]; strain ATCC 6301): 0.5 µg/mL (≈ 0.328 µM)
MIC Streptococcus pneumoniae (GC 1894) ([4]; strain GC 1894): <0.12 µg/mL
MIC Streptococcus pyogenes (GC 4563) ([4]; strain GC 4563): 0.25 µg/mL (≈ 0.164 µM)
MIC Streptococcus agalactiae (GC 4564) ([4]; strain GC 4564): 0.25 µg/mL (≈ 0.164 µM)
MIC Streptococcus pneumoniae (GC 4565) ([4]; strain GC 4565): 0.25 µg/mL (≈ 0.164 µM)
SMILES: CCCCCCCN1CC(C(O)C2NC(=O)C(C(O)C3CNC(=N)N3)NC(=O)C(Cc3ccc(OC4OC(CO)C(OC5OC6COC7(OC6C(O)C5O)C5CC6CC(C5)CC7C6)C(O)C4O)cc3)NC(=O)C(C(C)c3ccccc3)NC(=O)CNC(=O)C(CO)NC2=O)N(C2OC(CO)C(O)C(O)C2O)C1=N (stereo not drawn) [Example 83, Cyclo[glycyl-β-methylphenylalanyl-O-[4-O-[4,6-O-(2-adamantylidene)hexopyranosyl]hexopyranosyl]tyrosyl-3-(2-iminoimidazolidin-4-yl)seryl-3-[1-heptyl-3-hexopyranosyl-2-iminoimidazolidin-4-yl]serylseryl]]
